The values below come from patent US20130177991A1, “A[…] EMISSION LUMINOGEN-BASED URINARY PROTEIN DETECTION DEVICE FOR […] HEALTH” (NANO AND ADVANCED MATERIALS INSTITUTE LIMITED, priority 2012, published 2013).

Series [1] deals with T1, HSA (Homo sapiens, UniProt P02768).
T1 construct: purchased Sigma-Aldrich
Put plainly: Selectivity of fluorescence response to HSA against other proteins and DNAs. Type of series: binding. The conditions noted are these: FIG. 3B, [SATPE]=5 μM, [protein]=100 μg/mL. As to the method:
FIG. 3: (A) Binding isotherm of HSA to SATPE in artificial urine and PBS buffer; (B) Dependence of the FL intensity of SATPE at 475 nm on different proteins in artificial urine and PBS buffer. [SATPE]=5 μM; [protein]=100 μg/mL; λex=350 nm.
(§1) In another embodiment, Compound 1 is AIE-active as it emits faintly in PBS buffer but gives strong light upon aggregate formation. Its solution in PBS buffer is weakly luminescent at 390 nm in the absence of HSA (FIG. 2). […] The higher the HSA content, the stronger is the light emission. The detection limit can be squeezed to as low as 1 nM. In order to examine the feasibility of protein assay in body fluids, artificial urine is utilized as medium in the protein assay.

The target in series [2] is T1, HSA. The series is described as follows: Fluorescence turn-on assay of HSA in PBS buffer. Type of series: binding. As to the method:
FIG. 2: (A) Fluorescent (FL) spectra of compound 1, SATPE in phosphate buffered saline (PBS) buffer containing different concentrations of HSA; (B) Change in the FL intensity at 475 nm with HSA concentration; Io=FL intensity in the absence of HSA. Inset: linear region of the binding isotherm of SATPE to HSA. [SATPE]=5 μM; λex=350 nm.
as §1

T1 sequence (P02768 25-609): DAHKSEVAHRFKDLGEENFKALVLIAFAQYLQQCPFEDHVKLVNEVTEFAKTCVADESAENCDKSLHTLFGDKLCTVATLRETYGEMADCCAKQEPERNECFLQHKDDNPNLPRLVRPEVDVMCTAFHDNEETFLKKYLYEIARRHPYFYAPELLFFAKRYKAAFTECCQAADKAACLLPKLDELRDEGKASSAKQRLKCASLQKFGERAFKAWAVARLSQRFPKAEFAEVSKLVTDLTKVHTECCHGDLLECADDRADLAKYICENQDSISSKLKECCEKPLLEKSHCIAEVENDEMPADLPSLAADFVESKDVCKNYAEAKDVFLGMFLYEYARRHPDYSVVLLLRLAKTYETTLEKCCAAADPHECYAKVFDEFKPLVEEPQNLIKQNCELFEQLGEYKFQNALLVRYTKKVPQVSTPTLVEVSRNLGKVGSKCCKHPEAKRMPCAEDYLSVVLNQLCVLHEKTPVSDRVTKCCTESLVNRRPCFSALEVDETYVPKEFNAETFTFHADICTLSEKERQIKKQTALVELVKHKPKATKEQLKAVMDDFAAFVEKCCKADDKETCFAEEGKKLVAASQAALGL

With `O=S(=O)([O-])CCCOc1ccc(C(=C(c2ccccc2)c2ccc(OCCCS(=O)(=O)[O-])cc2)c2ccccc2)cc1.[Na+].[Na+]` [Compound 1], in series [1], the “response to other human proteins and DNAs” value is recorded as “no significant response”. Besides, the “selectivity to HSA” value in series [1] (artificial urine and PBS buffer) is recorded as “excellent selectivity to HSA”. The “detection limit for HSA” value in series [2] (emission at 475 nm) is given as 1 nM. Also, the “light emission upon addition of HSA” value in series [2] (weakly luminescent at 390 nm in the absence of HSA) is listed as “emit intensely at 475 nm”.
